Here are results for 27 compounds from patent US9233946B2, “Sulfonamide compounds” (KANCERA AB, priority 2010, dated 2016).

What is called pIC50 is the IC50 on a negative log10 scale, so that one unit is a factor of ten. The low end stands for a high IC50, the high end for a low IC50.

pIC50: −log10 of the molar value.

For the test, the target named is PFKFB3 (Homo sapiens (Human), UniProt Q16875). Description: PFKFB3 kinase activity, Method A (F-2,6-P2 production, coupled PPi-PFK/NADH assay). It counts as biochemical. The text has this: The PFKFB3 (placenta form) and PFKFB4 were produced and purified to homogeneity from E. coli at Biovitrum and at Sprint Bioscience. All other reagents were purchased from commercial sources. Two independent methods have been used for determination of the kinase activity of PFKFB3 (Method A and Method B). Method B has been used for determination of the kinase activity of PFKFB4.
PFKFB3, sequence (Q16875 whole entry): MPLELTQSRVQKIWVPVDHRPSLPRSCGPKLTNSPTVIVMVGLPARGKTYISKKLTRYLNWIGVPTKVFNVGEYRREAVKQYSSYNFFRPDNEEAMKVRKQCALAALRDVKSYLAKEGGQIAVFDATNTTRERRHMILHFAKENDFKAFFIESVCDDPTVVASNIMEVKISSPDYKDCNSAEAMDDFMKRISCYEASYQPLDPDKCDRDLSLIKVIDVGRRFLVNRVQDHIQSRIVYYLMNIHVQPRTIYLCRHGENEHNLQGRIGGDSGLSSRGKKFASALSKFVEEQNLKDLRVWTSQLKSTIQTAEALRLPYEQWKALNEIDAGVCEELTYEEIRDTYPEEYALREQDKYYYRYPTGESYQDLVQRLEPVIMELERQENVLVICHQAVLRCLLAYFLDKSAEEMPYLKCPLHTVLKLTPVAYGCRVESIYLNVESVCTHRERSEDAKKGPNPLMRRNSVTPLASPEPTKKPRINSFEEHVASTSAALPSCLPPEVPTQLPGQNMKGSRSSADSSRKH
Method A: The kinase activity of the bi-functional enzyme is readily quantified based on the production of F-2,6-P2 as described by Van Schaftingen et al. (1982) Eur. J. Biochem. 129, 191-5. This sensitive assay is based on the potent activation of pyrophosphate dependent phosphofructokinase-1 (PPi-PFK) from potato tubers by F-2,6-P2. The use of a series of coupled enzymes leads to a consumption of NADH (nicotinamide adenine dinucleotide) that can be followed spectrophotometrically (an updated protocol is available in Van Schaftingen, (1984) Methods of Enzymatic Analysis (Bergmeyer, H. U., ed.), 3rd edn., vol. 6, pp. 335-341, Verlag Chemie, Weinheim). A protocol for measurements in 96-well microtiter plate format is also available (Bruni et al., (1989) Anal. Biochem. 178, 324-6). These assay protocols have been adopted for the measurement of the kinase activity of PFKFB3 with some modifications as described in the protocol below.
The assay was run in 96-well microtiter plates (Costar 3365 round bottom polypropylene) by consecutive additions of 30 μl each of a test compound solution (diluted from a DMSO stock solution), a PFKFB3 solution and a substrate (fructose-6-phosphate (F6P) and adenosine-5′-triphosphate (ATP)) containing solution. […] The final concentrations of all reagents in a total assay volume of 90 μl per well were: • 50 mM Tris-acetate at pH 8.0 • 0.1 mM EDTA (ethylene diamine tetraacetic acid) • 10 mM MgCl2 • 5 mM Na2HPO4 (buffered by the Tris-acetate to a final pH of 8.0) • 5 nM PFKFB3 • 4 μM ATP • 100 μM F6P (acid treated and then neutralized to remove any contaminating F-2,6-P2; see Van Schaftingen, 1984) • 1 mM dithiothreitol (DTT) • 0.005% Tween-20
A test compound at various concentrations (which also added 0.83% DMSO to the final solution)
The enzymatic reaction was allowed to proceed for 10 minutes at room temperature while on a plate shaker at medium speed (750 RPM). The reaction was then terminated by the addition of 90 μl of a 0.4 M NaOH solution to all wells. The plate was then placed on the plateshaker at the same speed for two minutes to allow sufficient mixing. All samples were then diluted by a factor of 10 by transferring 20 μl from each well to the corresponding well of a new plate with 180 μl distilled water predispensed to all wells.
The next step in the protocol was quantification of the levels of F-2,6-P2 in each well of the microtiter plate. This was done by transferring 20 μl of the content in each well to the corresponding position in a new plate (Nunc 269620 transparent 96-well plate). […] To ensure that all measured values were within the linear range of the response (measured to be between 0-1 nM of F-2,6-P2 as also described by Van Schaftingen) the same volume of a 2.5 nM and a 5.0 nM standard sample were also added to column 12 (as all samples were diluted five-fold in the assay procedure this corresponds to 0.5 and 1.0 nM samples). The procedure then involved consecutive additions of three solutions with the following premixed components: • Assay-mix (20 μl): Tris-acetate at pH 8.0, NADH and Mg(OAc)2 • PPi/F6P-mix (40 μl): Pyrophosphate and F6P • Enzyme-mix (20 μl): Tris-acetate at pH 8.0, aldolase, triose phosphate isomerase, glycerol-3-phosphate dehydrogenase, pyrophosphate-dependent phosphofructokinase from potato tubers and bovine serum albumin (BSA) […]
Compound `O=C(O)c1cccc(NS(=O)(=O)c2ccc(-c3ccon3)s2)c1` [Example 79, 3-{[(5-Isoxazol-3-yl-2-thienyl)sulfonyl]amino}benzoic acid] showed a pIC50 of 5.20.

Turning to `O=S(=O)(Nc1cccc(-c2nnn[nH]2)c1)c1ccc2ccccc2c1` [Example 20, N-[3-(1H-Tetrazol-5-yl)phenyl]naphthalene-2-sulfonamide], the negative logarithm of the IC50 (pIC50) is 6.07.

As for `Cc1c(S(=O)(=O)Nc2cccc(C(=O)O)n2)sc2ccc(C(C)C)cc12` [Example 10, 6-{[(5-Isopropyl-3-methyl-1-benzothien-2-yl)sulfonyl]amino}pyridine-2-carboxylic acid], the pIC50 was 6.09.

`O=S(=O)(Nc1cccc(-c2nnn[nH]2)c1)c1ccc(-c2nsc(Cl)n2)s1` [Example 59, 5-(5-Chloro-1,2,4-thiadiazol-3-yl)-N-[3-(1H-tetrazol-5-yl)phenyl]thiophene-2-sulfonamide] gave a pIC50 of 6.25.

`O=S(=O)(Nc1cccc(-c2nnn[nH]2)c1)c1cccc(-c2ccc(F)cc2)c1` [Example 17, 4′-Fluoro-N-[3-(1H-tetrazol-5-yl)phenyl]biphenyl-3-sulfonamide]: the pIC50 is 6.35.

For the compound `O=S(=O)(Nc1cccc(-c2nnn[nH]2)c1)c1ccc(Br)cc1C(F)(F)F` [Example 56, 4-Bromo-N-[3-(1H-tetrazol-5-yl)phenyl]-2-(trifluoromethyl)benzenesulfonamide], the pIC50 was 5.95.

With `Cc1nc(-c2ccc(S(=O)(=O)Nc3cccc(-c4nnn[nH]4)c3)s2)cs1` [Example 25, 5-(2-Methyl-1,3-thiazol-4-yl)-N-[3-(1H-tetrazol-5-yl)phenyl]thiophene-2-sulfonamide], the pIC50 was 6.51.

As for `COc1ccc(-c2cccc(S(=O)(=O)Nc3cccc(-c4nnn[nH]4)c3)c2)cc1` [Example 19, 4′-Methoxy-N-[3-(1H-tetrazol-5-yl)phenyl]biphenyl-3-sulfonamide], the pIC50 was 6.14.

`Cc1c(S(=O)(=O)Nc2cccc(-c3nnn(CC(=O)O)n3)c2)sc2ccc(C(C)C)cc12` [Example 12, [5-(3-{[(5-Isopropyl-3-methyl-1-benzothien-2-yl)sulfonyl]amino}phenyl)-2H-tetrazol-2-yl]acetic acid] gave a pIC50 of 5.99.

`O=S(=O)(Nc1cccc(-c2nnn[nH]2)c1)c1ccc(-c2cnco2)s1` [Example 2, 5-(1,3-Oxazol-5-yl)-N-[3-(1H-tetrazol-5-yl)phenyl]thiophene-2-sulfonamide] had a pIC50 of 5.41.

For `Cc1c(S(=O)(=O)Nc2cncc(C(=O)O)c2)sc2ccc(C(C)C)cc12` [Example 9, 5-{[(5-Isopropyl-3-methyl-1-benzothien-2-yl)sulfonyl]amino}nicotinic acid], the pIC50 is 6.14.

For the compound `NC(=O)c1cccc(-c2ccc(S(=O)(=O)Nc3cccc(-c4nnn[nH]4)c3)s2)c1` [Example 58, 3-[5-[[3-(1H-Tetrazol-5-yl)phenyl]sulfamoyl]-2-thienyl]benzamide], the negative logarithm of the IC50 (pIC50) is 6.27.

Turning to `O=S(=O)(Nc1cccc(-c2nnn[nH]2)c1)c1cccc(-c2cc(Cl)cc(Cl)c2)c1` [Example 52, 3-(3,5-Dichlorophenyl)-N-[3-(1-H-tetrazol-5-yl)phenyl]benzenesulfonamide], the pIC50 is 5.60.

With `Cc1c(S(=O)(=O)Nc2cccc(-c3nnn[nH]3)c2)sc2ccc(N)cc12` [Example 48, 5-Amino-3-methyl-N-[3-(1H-tetrazol-5-yl)phenyl]-1-benzothiophene-2-sulfonamide], the pIC50 is 6.44.

`O=S(=O)(Nc1cccc(-c2nnn[nH]2)c1)c1ccc(-c2cnco2)cc1` [Example 83, 4-(1,3-Oxazol-5-yl)-N-[3-(1H-tetrazol-5-yl)phenyl]benzenesulfonamide] had a negative logarithm of the IC50 (pIC50) of 5.07.

`Cc1c(S(=O)(=O)Nc2cccc(-c3nnn[nH]3)c2)oc2ccc(C(C)C)cc12` [Example 13, 5-Isopropyl-3-methyl-N-[3-(1H-tetrazol-5-yl)phenyl]-1-benzofuran-2-sulfonamide] gave a pIC50 of 7.10.

In the case of `Cc1cc(Cl)cc(Cl)c1S(=O)(=O)Nc1cccc(-c2nnn[nH]2)c1` [Example 53, 2,4-Dichloro-6-methyl-N-[3-(1H-tetrazol-5-yl)phenyl]benzenesulfonamide], the negative logarithm of the IC50 (pIC50) is 5.75.

Compound `Cc1c(S(=O)(=O)Nc2cc(C(=O)O)cc([N+](=O)[O-])c2)sc2ccc(C(C)C)cc12` [Example 11, 3-{[(5-Isopropyl-3-methyl-1-benzothien-2-yl)sulfonyl]amino}-5-nitrobenzoic acid] had a pIC50 of 6.07.

In turn, `O=S(=O)(Nc1cccc(-c2nnn[nH]2)c1)c1cccc(-c2ccc(C(F)(F)F)cc2)c1` [Example 55, N-[3-(1H-Tetrazol-5-yl)phenyl]-3-[4-(trifluoromethyl)phenyl]benzenesulfonamide] gave a pIC50 of 5.24.

Turning to `CC(=O)Nc1ccc2sc(S(=O)(=O)Nc3cccc(C(=O)O)c3)c(C)c2c1` [Example 49, 3-({[5-(Acetylamino)-3-methyl-1-benzothien-2-yl]sulfonyl}amino)benzoic acid], the pIC50 was 5.29.

Consider `O=S(=O)(Nc1cccc(-c2nnn[nH]2)c1)c1ccc(-c2ccccc2)cc1` [Example 31, N-[3-(1H-Tetrazol-5-yl)phenyl]biphenyl-4-sulfonamide], for which the pIC50 was 5.86.

In turn, `O=C(O)c1cccc(NS(=O)(=O)c2ccc(-c3ccccn3)s2)c1` [Example 78, 3-{[(5-Pyridin-2-yl-2-thienyl)sulfonyl]amino}benzoic acid] showed a pIC50 of 5.17.

For `Cc1nc(NS(=O)(=O)c2sc3ccc(C(C)C)cc3c2C)sc1C(=O)O` [Example 8, 2-{[(5-Isopropyl-3-methyl-1-benzothien-2-yl)sulfonyl]amino}-4-methyl-1,3-thiazole-5-carboxylic acid], the negative-log IC50 (pIC50) is 6.21.

`O=S(=O)(Nc1cccc(-c2nnn[nH]2)c1)c1ccc(F)cc1Cl` [Example 81, 2-Chloro-4-fluoro-N-[3-(1H-tetrazol-5-yl)phenyl]benzenesulfonamide] had a pIC50 of 5.01.

Compound `O=S(=O)(Nc1cccc(-c2nnn[nH]2)c1)c1ccc(Cl)c(Cl)c1Cl` [Example 1, 2,3,4-Trichloro-N-[3-(1H-tetrazol-5-yl)phenyl]benzenesulfonamide] showed a negative logarithm of the IC50 (pIC50) of 6.55.

Take `Cc1c(S(=O)(=O)Nc2cccc(CC(=O)O)c2)sc2ccc(C(C)C)cc12` [Example 15, (3-{[(5-Isopropyl-3-methyl-1-benzothien-2-yl)sulfonyl]amino}phenyl)acetic acid]: the pIC50 is 6.64.

`Cc1c(S(=O)(=O)Nc2cccc(C(=O)O)c2)oc2ccc(C(C)C)cc12` [Example 14, 3-{[(5-Isopropyl-3-methyl-1-benzofuran-2-yl)sulfonyl]amino}benzoic acid]: the negative logarithm of the IC50 (pIC50) was 6.55.
